Source: ChEMBL document CHEMBL4651402, “Screening of ~5500 FDA-approved drugs and clinical candidates for anti-SARS-CoV-2 activity” (2021)
pIC50: −log10 of the molar value.

System: SARS-CoV-2
Experiment: microbe, parasite or virus in culture
Details: Severe acute respiratory syndrome coronavirus 2, Vero C1008, 48 h; for IC50: read-out: pIC50 (converted)

Structure (SMILES)	pIC50	IC50 [µM]
CN1C2CCCC1CC(=O)C2	< 4.70	> 20
CS(=O)(=O)c1ccc(C2=C(c3ccccc3)C(=O)OC2)cc1 [ROFECOXIB]	< 4.70	> 20
CCOC(=O)C1(c2ccccc2)CCN(CCCNc2ccccc2)CC1 [PIMINODINE]	< 4.70	> 20
CCCCC1C(=O)NC(=O)N(C2CCCCC2)C1=O (stereo not drawn) [BUCOLOME]	< 4.70	> 20
CCCc1cc(C(N)=S)ccn1 [PROTIONAMIDE]	< 4.70	> 20
Clc1ccc(COC(Cn2ccnc2)c2ccc(Cl)cc2Cl)cc1 (stereo not drawn) [ECONAZOLE]	< 4.70	> 20
C[C@@H]1CN([C@H]2CC[C@](C#N)(c3ccc(F)cc3)CC2)CC[C@]1(C(=O)O)c1ccccc1 [LEVOCABASTINE]	< 4.70	> 20
COc1cc(/C=C/C(=O)O)ccc1O [FERULATE]	< 4.70	> 20
CC(O)(C(=O)Nc1ccc(C(=O)c2ccccc2)cc1)C(F)(F)F (stereo not drawn)	< 4.70	> 20
N#Cc1ccccc1-c1cc(-c2ccccn2)cn(-c2ccccc2)c1=O	< 4.70	> 20
CCOC(=O)c1ccc(OCCC2CCN(c3ccc(C)nn3)CC2)cc1	< 4.70	> 20
Cc1cc(CC(=O)O)n(C)c1C(=O)c1ccc(Cl)cc1 [ZOMEPIRAC]	< 4.70	> 20
O=C1NC(O)CCN1[C@@H]1O[C@H](CO)[C@@H](O)[C@H]1O (stereo partly drawn) [TETRAHYDROURIDINE]	< 4.70	> 20
Cc1nc2c(C)cccn2c(=O)c1CCN1CCC(c2noc3cc(F)ccc23)CC1 [OCAPERIDONE]	< 4.70	> 20
Clc1cccc(Cl)c1NC1=NCCN1 [CLONIDINE]	< 4.70	> 20
CCC[C@H](N[C@@H](C)C(=O)N1C2CCCCC2C[C@H]1C(=O)O)C(=O)OCC (stereo partly drawn)	< 4.70	> 20
CC(C)[C@H](N)C(=O)O[C@@H]1C[C@@H](n2ccc(N)nc2=O)O[C@H]1CO [VALTORCITABINE]	< 4.70	> 20
CC(N)C12CC3CC(CC(C3)C1)C2 (stereo not drawn) [RIMANTADINE]	< 4.70	> 20
Clc1ccc(C(Cn2ccnc2)OCc2ccc(Sc3ccccc3)cc2)c(Cl)c1 (stereo not drawn) [FENTICONAZOLE]	< 4.70	> 20
CC=CC(=O)N(CC)c1ccccc1C	< 4.70	> 20
Cc1ncc([N+](=O)[O-])n1CC(C)O (stereo not drawn) [SECNIDAZOLE]	< 4.70	> 20
C=CCn1c(=O)n(C2OC(CO)C(O)C2O)c2nc(N)[nH]c(=O)c21 (stereo not drawn)	< 4.70	> 20

Structure (SMILES)	pIC50	IC50 [µM]
O=C(O)c1cccnc1C(=O)O [QUINOLINIC ACID]	< 4.70	> 20
C#CCN(C)Cc1ccccc1 [PARGYLINE]	< 4.70	> 20
CCN1C[C@]2(OC(=O)c3ccccc3NC(C)=O)CC[C@H](OC)[C@@]34[C@@H]2C[C@@H]([C@@H]13)[C@@]1(O)C[C@H](OC)[C@H]2C[C@@H]4[C@]1(O)[C@H]2OC	< 4.70	> 20
COc1cccc(OC)c1-c1ccc(C[C@H](NC(=O)c2c(Cl)cccc2Cl)C(=O)O)cc1	< 4.70	> 20
ClCCN(Cc1ccccc1)Cc1ccccc1	< 4.70	> 20
O=C1NC(=O)C(=O)C(=O)N1 [ALLOXAN]	< 4.70	> 20
COc1ccc(CC(C)N)cc1 (stereo not drawn) [PARA-METHOXYAMPHETAMINE]	< 4.70	> 20
Oc1nc(O)c2cn[nH]c2n1 [OXYPURINOL]	< 4.70	> 20
CCN(CC)C(=O)C1(c2ccccc2)CC1CN (stereo not drawn)	< 4.70	> 20
CCOC(=O)[C@H](CCc1ccccc1)N[C@H]1CCCN2CCC[C@@H](C(=O)O)N2C1=O [CILAZAPRIL]	< 4.70	> 20
C[C@@H](N)c1ccc(C(=O)Nc2ccnc3[nH]ccc23)cc1 [Y-39983]	< 4.70	> 20
CC(=O)c1c(C)c2cnc(Nc3ccc(N4CCNCC4)cn3)nc2n(C2CCCC2)c1=O [PALBOCICLIB]	< 4.70	> 20
O=c1ccc2cc(O[C@@H]3O[C@H](CO)[C@@H](O)[C@H](O)[C@H]3O)c(O)cc2o1 [ESCULIN]	< 4.70	> 20
CN1CCN(c2cc3c(nn2)Oc2ccccc2N3C)CC1 [PIPOFEZINE]	< 4.70	> 20
CC/C(=C(\c1ccc(O)cc1)c1ccc(OCCN(C)C)cc1)c1ccccc1 [AFIMOXIFENE]	< 4.70	> 20
O=C(Nc1ccc(OC(F)(F)F)cc1)c1sccc1NCc1ccnc2ccccc12 [OSI-930]	< 4.70	> 20
C=CC(=O)N1CCC(CNc2ncnc(N)c2-c2ccc(Oc3ccccc3)cc2)CC1 [EVOBRUTINIB]	< 4.70	> 20
CCCC(C)C1(CC)C(=O)NC(=S)NC1=O (stereo not drawn) [THIOPENTAL]	< 4.70	> 20
C[C@@H]([C@@H](O)c1ccc(O)cc1)N1CCC(O)(c2ccccc2)CC1 [TRAXOPRODIL]	< 4.70	> 20
C#C[C@]1(O)CC[C@H]2[C@@H]3CCC4=CC(=NO)CC[C@@H]4[C@H]3CC[C@@]21CC	< 4.70	> 20
CNC1(C)C2CCC(C2)C1(C)C (stereo not drawn) [MECAMYLAMINE]	< 4.70	> 20
CN(C)CC(CN1c2ccccc2Sc2ccccc21)N(C)C (stereo not drawn) [AMINOPROMAZINE]	< 4.70	> 20

Structure (SMILES)	pIC50	IC50 [µM]
CC(=O)N[C@H]1[C@H]([C@H](O)[C@H](O)CO)O[C@](O)(C(=O)O)C[C@@H]1O	< 4.30	> 50.1
Clc1ccc(CO/N=C(\Cn2ccnc2)c2ccc(Cl)cc2Cl)c(Cl)c1 [OXICONAZOLE]	< 4.70	> 20
COC1=CC(=O)C[C@@H](C)[C@]12Oc1c(Cl)c(OC)cc(OC)c1C2=O [GRISEOFULVIN]	< 4.70	> 20
CN(CCOc1ccc(NS(C)(=O)=O)cc1)CCc1ccc(NS(C)(=O)=O)cc1 [DOFETILIDE]	< 4.70	> 20
CC[C@H](NC(=O)[C@H](C)NC)C(=O)N1C[C@@H](O)C[C@H]1Cc1c(-c2[nH]c3cc(F)ccc3c2C[C@@H]2C[C@H](O)CN2C(=O)[C@H](CC)NC(=O)[C@H](C)NC)[nH]c2cc(F)ccc12 [BIRINAPANT]	< 4.70	> 20
C[C@H](N[C@@H](CCc1ccccc1)C(=O)O)C(=O)N1CCC[C@H]1C(=O)O [ENALAPRILAT ANHYDROUS]	< 4.70	> 20
N[C@@H](Cc1c[nH]c2ccccc12)C(=O)O [TRYPTOPHAN]	< 4.70	> 20
O=C(O)Cc1nn(Cc2ccc(Br)cc2F)c(=O)c2ccccc12 [PONALRESTAT]	< 4.70	> 20
CN1c2ccccc2Sc2ccc(CC(=O)O)cc21 [METIAZINIC ACID]	< 4.70	> 20
CCC1C(=O)Nc2ccc(F)cc2N1C(=O)OC(C)C (stereo not drawn)	< 4.70	> 20
O=C(CO)[C@@H](O)[C@H](O)[C@H](O)CO [FRUCTOSE]	< 4.70	> 20
CC(C)(C)C(=O)NCCCC(=O)O [PIVAGABINE]	< 4.70	> 20
Cc1c(CN2CCN(C(=O)[C@H](C)O)CC2)sc2c(N3CCOCC3)nc(-c3cnc(N)nc3)nc12 [APITOLISIB]	< 4.70	> 20
COc1cnc(-n2cnc(C)n2)c2c1c(C(=O)C(=O)N1CCN(C(=O)c3ccccc3)CC1)cn2COP(=O)(O)O [FOSTEMSAVIR]	< 4.70	> 20
O=[N+]([O-])O[C@@H]1CO[C@H]2[C@@H]1OC[C@@H]2O [ISOSORBIDE MONONITRATE]	< 4.70	> 20
COc1cc(OC)c(C(=O)CCCN2CCCC2)c(OC)c1 [BUFLOMEDIL]	< 4.70	> 20
O=C(CC1NCCCC1O)Cn1cnc2cc(Br)c(Cl)cc2c1=O (stereo not drawn) [HALOFUGINONE]	< 4.70	> 20
N=C(N)NCc1cccc(I)c1 [IOBENGUANE]	< 4.70	> 20
C=C1CC[C@H]2[C@@H](/C=C(/C)C(=O)[C@@]3(OC(C)=O)C[C@H](C)[C@H](OC(=O)c4ccccc4)[C@@H]3[C@H]1OC(C)=O)C2(C)C	< 4.70	> 20
CCCCCCCCCCCCCCCC[N+](C)(C)C [CETRIMONIUM]	< 4.70	> 20
